The experiment addresses T1, Siglec5 (Homo sapiens, UniProt O15389, C36A).
T1 sequence (O15389 19-141 C36A): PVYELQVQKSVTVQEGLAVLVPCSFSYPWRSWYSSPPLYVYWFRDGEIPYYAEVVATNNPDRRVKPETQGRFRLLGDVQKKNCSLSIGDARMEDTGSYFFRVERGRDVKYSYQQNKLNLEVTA
The experiment is described as follows: 2D 1H-15N HSQC NMR titration. It counts as binding.

On to `CC(=O)N[C@H]1[C@H]([C@H](O)[C@H](O)CO)OC(O)(C(=O)O)C[C@@H]1O` (mixture of isomers) [sialic acid], for which the Kd (as a rule, the concentration at which binding is half-saturated) was greater than 100 mM.
Turning to `CC(=O)N[C@H]1[C@H]([C@H](O)[C@H](O)CO)O[C@@](OC[C@H]2O[C@@H](O[C@H]3[C@H](O)[C@@H](O)C(O)O[C@@H]3CO)[C@H](O)[C@@H](O)[C@H]2O)(C(=O)O)C[C@@H]1O` (some centres unmarked) [6′-sialyllactose], the Kd came out at 31 ± 8 mM.

Source of the values: PMC3593816 (Protein expression and purification, 2013).
